Assay results: ChEMBL document CHEMBL1201862, “PubChem BioAssay data set” (2004)
Active and inactive are the calls of the source.

How the values were obtained:
Aspartyl aminopeptidase [1] = target: T1, Aspartyl aminopeptidase (Plasmodium falciparum 3D7, UniProt Q8I2J3)
T1 sequence (Q8I2J3 whole entry): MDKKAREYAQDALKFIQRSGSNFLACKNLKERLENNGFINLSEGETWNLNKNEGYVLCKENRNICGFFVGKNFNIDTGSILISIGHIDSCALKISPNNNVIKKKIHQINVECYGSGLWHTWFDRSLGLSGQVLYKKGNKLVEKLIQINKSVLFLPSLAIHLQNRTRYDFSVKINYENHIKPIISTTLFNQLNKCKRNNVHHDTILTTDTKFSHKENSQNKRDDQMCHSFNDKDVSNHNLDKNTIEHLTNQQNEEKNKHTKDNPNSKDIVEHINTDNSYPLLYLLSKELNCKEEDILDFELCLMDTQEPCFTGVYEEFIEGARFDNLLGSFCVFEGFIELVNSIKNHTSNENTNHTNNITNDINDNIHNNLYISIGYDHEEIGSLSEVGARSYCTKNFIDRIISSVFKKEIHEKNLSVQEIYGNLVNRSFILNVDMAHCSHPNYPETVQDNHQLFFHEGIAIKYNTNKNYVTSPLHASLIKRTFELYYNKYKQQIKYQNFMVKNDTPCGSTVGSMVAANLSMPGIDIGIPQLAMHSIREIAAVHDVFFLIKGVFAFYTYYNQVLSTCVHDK

Procathepsin L [2] = target: T2, Procathepsin L (Homo sapiens, UniProt P07711)
[3] = target: T3, Short transient receptor potential channel 4 (Mus musculus, UniProt Q9QUQ5); assay: mouse TRPC4 channel inhibitors, dose response, cell-based, HEK293 TRPC4/mu-opioid, Fluo-4 calcium (AID 434942); assay type: functional;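 note: potency of inhibitors blocking the TRPC4 calcium response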
T3 sequence (Q9QUQ5 whole entry): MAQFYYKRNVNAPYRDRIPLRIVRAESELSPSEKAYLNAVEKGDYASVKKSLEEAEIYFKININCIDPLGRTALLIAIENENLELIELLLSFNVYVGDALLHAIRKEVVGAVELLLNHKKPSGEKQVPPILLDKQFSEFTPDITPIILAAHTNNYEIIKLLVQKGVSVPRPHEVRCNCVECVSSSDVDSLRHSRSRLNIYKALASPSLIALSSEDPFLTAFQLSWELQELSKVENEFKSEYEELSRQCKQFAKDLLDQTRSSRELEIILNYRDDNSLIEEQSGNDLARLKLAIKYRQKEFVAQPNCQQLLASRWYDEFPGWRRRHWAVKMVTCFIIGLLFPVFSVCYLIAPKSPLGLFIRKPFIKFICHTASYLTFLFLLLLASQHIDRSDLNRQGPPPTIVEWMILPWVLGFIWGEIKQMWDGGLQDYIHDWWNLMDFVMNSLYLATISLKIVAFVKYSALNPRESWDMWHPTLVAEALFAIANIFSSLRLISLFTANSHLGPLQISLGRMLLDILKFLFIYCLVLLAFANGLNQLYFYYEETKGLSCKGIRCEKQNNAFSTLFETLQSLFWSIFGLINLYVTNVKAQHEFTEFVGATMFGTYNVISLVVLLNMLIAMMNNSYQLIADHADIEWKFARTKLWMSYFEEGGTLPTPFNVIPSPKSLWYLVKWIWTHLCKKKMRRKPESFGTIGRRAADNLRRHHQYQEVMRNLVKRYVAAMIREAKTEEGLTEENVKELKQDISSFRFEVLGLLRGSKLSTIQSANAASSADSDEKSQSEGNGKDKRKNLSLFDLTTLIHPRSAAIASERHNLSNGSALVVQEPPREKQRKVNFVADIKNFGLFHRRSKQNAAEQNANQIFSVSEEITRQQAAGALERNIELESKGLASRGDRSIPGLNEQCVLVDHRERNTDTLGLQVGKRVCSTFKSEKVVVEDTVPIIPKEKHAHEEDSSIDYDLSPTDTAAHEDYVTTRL

H4 = assay: Luminescence Cell-Based Dose Response HTS to Identify Activators of 5'UTR Stem-Loop Driven Prion Protein mRNA Translation in H4 Neuroglioblastoma Cells. [Related pubchem assays: 1829 (Project Summary), 1814 (Primary HTS)]; assay type: functional; conditions: Homo sapiens
[4] = Luminescence Cell-Based Dose Response HTS to Identify Activators of Luciferase Translation or Activity in H4 […] Cells. [Related pubchem assays: 1829 (Project Summary), 1814 (Primary HTS)]; assay type: functional
[5] = target: Dual specificity tyrosine-phosphorylation-regulated kinase 1A (Rattus norvegicus, UniProt Q63470); assay type: biochemical, Homo sapiens
[6] = target: Eukaryotic translation initiation factor 4E (Mus musculus, UniProt P63073); assay: eIF4E–eIF4G protein interaction inhibitors, dose response, biochemical, TR-FRET (AID 855); assay type: functional;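 note: potency for disrupting eIF4E binding to eIF4GI seen as loss of FRET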
[7] = M. tuberculosis H37Rv growth inhibitors, H37Rv strain (AID 1626); assay type: functional
[8] = inhibitors of HIV Env-driven cell fusion, dose response, cherry-pick (AID 652057); assay type: functional, cell-based
[9] = inhibitors of clade B AD8 Env fusion, dose response, cell-based, cherry-pick (AID 652062); assay type: functional;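 note: luciferase signal from cell-cell fusion driven by HIV-1 clade B AD8 Env; potency is for inhibitors of fusion seen as a drop in luminescence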
[10] = ZM109 Env clade C HIV-1 fusion inhibitors, dose response, HeLa effector, CEM target cells, luciferase, cherry-pick (AID 652058); assay type: functional, cell-based
Estrogen receptor = target: T4, Estrogen receptor (Homo sapiens, UniProt P03372);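 note: potency for inhibiting coactivator peptide recruitment to the receptor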
T4 sequence (P03372 whole entry): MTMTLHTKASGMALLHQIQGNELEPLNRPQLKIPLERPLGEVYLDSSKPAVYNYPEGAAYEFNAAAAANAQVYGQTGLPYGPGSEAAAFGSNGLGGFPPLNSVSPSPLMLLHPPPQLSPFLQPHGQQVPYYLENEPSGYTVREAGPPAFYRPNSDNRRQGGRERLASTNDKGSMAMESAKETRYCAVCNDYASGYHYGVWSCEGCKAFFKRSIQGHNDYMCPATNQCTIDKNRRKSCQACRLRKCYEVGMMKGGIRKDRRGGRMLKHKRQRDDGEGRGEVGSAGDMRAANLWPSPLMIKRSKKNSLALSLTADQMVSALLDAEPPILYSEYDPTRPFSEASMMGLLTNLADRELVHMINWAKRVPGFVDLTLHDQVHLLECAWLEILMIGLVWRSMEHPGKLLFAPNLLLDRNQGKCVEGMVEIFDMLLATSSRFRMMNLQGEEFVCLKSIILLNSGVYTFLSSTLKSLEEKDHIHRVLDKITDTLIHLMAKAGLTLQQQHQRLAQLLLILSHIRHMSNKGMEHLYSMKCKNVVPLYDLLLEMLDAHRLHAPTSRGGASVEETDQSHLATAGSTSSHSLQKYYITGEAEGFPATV

[11] = cytotoxicity in HPDE-C7 cells, cell-based, fluorescence, HTS (AID 430); assay type: functional; conditions: Homo sapiens
[12] = cytotoxicity in KRAS-transformed pancreatic duct cells, primary screen, cell-based, fluorescence, HTS (AID 431); assay type: functional; conditions: Homo sapiens;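 note: cell line used: HPDE-C7K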
Aspartyl aminopeptidase [13] = target: T1, Aspartyl aminopeptidase; assay: Counterscreen for inhibitors of M1 and M17 aminopeptidases: QFRET-based biochemical high throughput dose response assay for inhibitors of the Plasmodium falciparum M18 Aspartyl Aminopeptidase (PFM18AAP). [Related PubChem assays: 1619 (Screening assay (M17LAP inhibitors).), 1445 (Screening assay (M1AAP inhibitors).)]
Procathepsin L [14] = target: T2, Procathepsin L; assay: cathepsin L inhibitors, dose response, counter-screen for M1/M17 aminopeptidase inhibitor project, biochemical, QFRET, 1536-well (AID 2214)
Leucine aminopeptidase = target: T5, Leucine aminopeptidase (Plasmodium falciparum 3D7, UniProt Q8IL11); assay: P. falciparum M17LAP inhibitors, primary screen, biochemical, fluorogenic H-Leu-NHMec substrate, 1536-well (AID 1619); assay type: functional
T5 sequence (Q8IL11 whole entry): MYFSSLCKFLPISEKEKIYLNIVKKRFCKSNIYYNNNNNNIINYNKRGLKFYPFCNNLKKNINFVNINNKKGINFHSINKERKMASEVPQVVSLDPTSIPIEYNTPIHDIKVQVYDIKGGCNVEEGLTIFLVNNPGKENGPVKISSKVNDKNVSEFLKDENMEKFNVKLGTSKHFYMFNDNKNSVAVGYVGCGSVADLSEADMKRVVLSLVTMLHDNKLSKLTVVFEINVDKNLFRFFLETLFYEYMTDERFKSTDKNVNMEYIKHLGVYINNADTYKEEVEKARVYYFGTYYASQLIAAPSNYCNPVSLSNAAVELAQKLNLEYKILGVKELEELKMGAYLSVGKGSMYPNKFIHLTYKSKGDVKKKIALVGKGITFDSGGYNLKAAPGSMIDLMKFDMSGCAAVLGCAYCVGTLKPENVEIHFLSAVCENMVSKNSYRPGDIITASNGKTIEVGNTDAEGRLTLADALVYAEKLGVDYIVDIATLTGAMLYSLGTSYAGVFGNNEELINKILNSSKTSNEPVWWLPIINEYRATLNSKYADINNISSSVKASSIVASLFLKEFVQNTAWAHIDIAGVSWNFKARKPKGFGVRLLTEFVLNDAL

Large T antigen = Large T antigen (Simian virus 40, UniProt P03070); assay type: functional, Betapolyomavirus macacae;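 note: Confirmatory-stage PubChem screen for compounds that inhibit SV40 T antigen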
Sequence of Large T antigen (P03070 whole entry): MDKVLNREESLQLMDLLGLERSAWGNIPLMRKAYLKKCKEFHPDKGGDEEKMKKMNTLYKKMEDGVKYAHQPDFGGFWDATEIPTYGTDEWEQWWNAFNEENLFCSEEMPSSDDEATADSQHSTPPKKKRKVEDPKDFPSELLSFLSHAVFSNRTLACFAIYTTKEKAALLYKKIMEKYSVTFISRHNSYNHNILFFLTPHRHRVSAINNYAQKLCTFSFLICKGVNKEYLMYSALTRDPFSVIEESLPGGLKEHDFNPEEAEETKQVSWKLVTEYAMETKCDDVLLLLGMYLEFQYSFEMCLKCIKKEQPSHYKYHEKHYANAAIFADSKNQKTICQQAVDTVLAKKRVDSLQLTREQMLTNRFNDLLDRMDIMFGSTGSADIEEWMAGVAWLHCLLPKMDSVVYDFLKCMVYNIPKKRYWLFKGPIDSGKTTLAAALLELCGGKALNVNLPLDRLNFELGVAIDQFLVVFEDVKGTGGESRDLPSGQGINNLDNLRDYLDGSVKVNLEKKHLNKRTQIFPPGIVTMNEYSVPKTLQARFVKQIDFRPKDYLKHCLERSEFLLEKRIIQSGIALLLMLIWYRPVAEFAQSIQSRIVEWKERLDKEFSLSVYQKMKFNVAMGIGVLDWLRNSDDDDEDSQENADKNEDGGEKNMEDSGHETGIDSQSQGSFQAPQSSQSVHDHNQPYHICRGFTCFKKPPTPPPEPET

T2 sequence (P07711 whole entry): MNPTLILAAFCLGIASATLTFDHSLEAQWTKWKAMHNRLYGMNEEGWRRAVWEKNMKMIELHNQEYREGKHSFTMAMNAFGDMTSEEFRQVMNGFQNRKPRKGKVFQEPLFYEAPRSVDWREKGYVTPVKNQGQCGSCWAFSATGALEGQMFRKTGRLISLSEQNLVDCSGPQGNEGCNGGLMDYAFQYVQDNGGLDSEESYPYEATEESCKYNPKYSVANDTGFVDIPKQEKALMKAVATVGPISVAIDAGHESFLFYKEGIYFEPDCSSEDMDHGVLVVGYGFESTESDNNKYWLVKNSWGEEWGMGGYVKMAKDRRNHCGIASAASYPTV
Sequence of Eukaryotic translation initiation factor 4E (P63073 whole entry): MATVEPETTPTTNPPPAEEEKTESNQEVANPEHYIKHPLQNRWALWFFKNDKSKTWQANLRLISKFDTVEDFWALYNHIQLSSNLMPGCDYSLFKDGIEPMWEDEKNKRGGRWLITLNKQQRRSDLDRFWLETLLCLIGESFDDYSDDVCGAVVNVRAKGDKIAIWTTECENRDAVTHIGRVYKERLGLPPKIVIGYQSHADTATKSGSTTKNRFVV

With `O=C(CSc1nnc(-c2ccccc2)o1)Nn1cnnc1` the IC50 (Aspartyl aminopeptidase [1]) was 2.09 µM (active) and the IC50 (Procathepsin L [2]) was > 59.6 µM (not active).
With `Oc1ccc(-c2csc(-c3ccccc3)n2)cc1O` the IC50 (Aspartyl aminopeptidase [1]) was 2.78 µM (active), the EC50 [3] was 4.73 µM (active) and the EC50 (H4) was 6.54 µM (active). The EC50 [4] was > 120 µM (not active), the AC50 [5] was 6.72 µM (active) and the IC50 (Procathepsin L [2]) was > 59.6 µM (not active).
With `CCOC(=O)c1cnn(C(=O)c2ccccc2)c1N` the IC50 [6] was > 64 µM (inactive) and the IC50 [7] was > 100 µM (active).
In the case of `O=S(=O)(NCCc1csc(-c2cccnc2)n1)c1ccc(Cl)s1`, the AC50 [8] is reported as 42 µM (active), the AC50 [9] is reported as 12 µM (active) and the AC50 [10] is reported as 7.17 µM (active). The IC50 (Estrogen receptor) was 19.2 µM (active).
With `CCc1ccc(C(=O)CSC2=C(C#N)C(c3ccco3)C(C(C)=O)=C(C)N2)cc1` (stereo unspecified) the EC50 [11] was 14.4 µM (active) and the EC50 [12] was 15.7 µM (active).
In the case of `CCc1cc2cc(OC)ccc2nc1SCC(=O)Nc1cc(OC)c(OC)cc1C(=O)O`, the IC50 (Aspartyl aminopeptidase [13]) is reported as > 73.5 µM (not active), the IC50 (Procathepsin L [14]) is reported as > 59.6 µM (not active) and the IC50 (Leucine aminopeptidase) is reported as < 1 µM (active).
For `COc1ccc(/N=C/c2c[nH]nc2O)cc1`, the IC50 (Large T antigen) was 17.9 µM (active) and the IC50 [7] was > 100 µM (active).
